The values that follow come from US20190183910A1, “ENHANCING DNA REPAIR AND PREVENTING AGING AND ITS CONSEQUENCES IN REPRODUCTIVE AND OTHER CELLS” (NEW YORK MEDICAL COLLEGE, priority 2016, published 2019).

The structures appear in SMILES notation.

One data set relates to RAD50. The experiment in a line: qRT-PCR DNA DSB repair gene expression in mouse sperm lysates, RAD50. The data set is classed as cell-based. The following applies: S1P treatment, no ATM inhibitor. As to the method: (§1) Treatment was performed with genotoxic stress (1 mM H2O2), S1P (200 μM), and S1P with genotoxic stress and control in culture for one hour. Also, the use of an ATM inhibitor was utilized (10 μM) (KU-55593, Abcam) (Li et al., 2014). We assessed DNA damage, apoptosis, and chromatin integrity. We also studied the DNA DSB repair gene expression by qRT-PCR in sperm lysates.
(§2) Sperm pellets previously snap-frozen in PBS were thawed. RNA was extracted using the trizol method (Rio et al., 2010). The quality and quantity of the RNA were measured with NanoDrop 2000 from Thermo Scientific. RNA (2 μg) from each sample was taken for reverse transcription with dTVN and N9 primers and SuperScript III reverse transcriptase, all procured from Invitrogen. The resulting cDNA was used to perform real-time qPCR with SYBR Green on an Applied Biosystems 7900HT Real-Time PCR machine was used. To determine the relative expression of various DNA repair genes in mouse sperm, we used the ΔΔCt method, which makes use of the expression of housekeeping genes. GAPDH was used as housekeeping gene. Primers were procured from Integrated DNA technologies (IDT) (Table 3).

The test system of the next data set is oocytes. The note with it: ex vivo (Morita et al., 2000; Tilly and Kolesnick, 2007); cited from earlier work.
Another data set concerns DMC1. The experiment in a line: qRT-PCR DNA DSB repair gene expression in mouse sperm lysates, DMC1. It is filed as cell-based. As for the experimental part:
as §1, §2
(Quantitative PCR measures a nucleic acid by following its amplification.)

The conditions of data set [1]: in vivo continuous or intermittent administration to mice (Soleimani et al., 2011; Li et al, 2014); cited from earlier work.
A further data set deals with male germ cells. The following applies: S1P treatment to mouse testes (Otala et al., 2004); cited from earlier work.
In a further data set the test system is mouse sperm. The experiment in a line: Neutral comet assay on mouse sperm. The data set is classed as cell-based. The note with it: for percent tail DNA, neutral comet: mouse sperm, n=9, mean±SEM. As for the experimental part:
as §1
Slides were prepared 48 hours prior to experimentation by coating normal glass microscope slides with 500 μl normal melting point agar (NMPA, 0.5% w/v in PBS) solution and left to dry at room temperature for no less than 48 hours. Once samples were obtained, 10 μl of mouse sperm suspension was mixed with 90 μl of 0.5% low melting point agar (LMPA). Then, this 100 μl solution was added to the NMPA-coated slides. Coverslips were added and slides were placed on a metallic tray on ice and in the dark for 5 minutes. The cover slips were then removed and another layer of LMPA was added. Cover slips were subsequently replaced before the LMPA hardened. Slides were then kept in the dark on ice again for another 5 minutes. After ten minutes, the cover slips were removed and slides were placed in staining jars containing ice cold lysing solution (2.5 M NaCl, 100 mM EDTA, sodium N-laurylsacrosinate [SLS]. [1% w/v] and 10 mM Trizma base pH10, and 1% Triton-X-100 and 10% DMSO [immediately adding before use]) for 1 hour at 4° C. in a dark place.
After this lysis step, the slides were washed three times for 5 minutes with the cold electrophoresis buffer (0.089 M Tris base, 0.089 M boric acid and 2 mM EDTA [pH 8.3]), and then placed flatly in the electrophoresis tank face up for 30 minutes. This incubation period was used to achieve the unwinding of the DNA. Electrophoresis was then performed at 18 V for 60 minutes. After this, slides were washed twice in PBS for 5 minutes each. Before analysis could occur, the sperm within the slides needed to be fixed by two 10 minute washes in ethanol, and then air drying at room temperature. Ethidium bromide (50 μl at 10 μg/ml in water) was then added on the slide, and sealed with a cover slip. Slides were kept moist, wrapped in aluminum foil to prevent light exposure, and stored at 4° C. until analysis (Smart et al., 2008).
Slides from both alkaline and neutral comets were imaged by fluorescence microscopy using a Nikon OPTIPHOT microscope. ImageJ was used for comet assay analysis, which calculated tail length, tail moment, and % of DNA in the tail. […] The comets were “on scale” for the calculations to be correct (the brightest pixels of interest were below 255 on an 8-bit scale). […] To analyze the slides, an oval around the sperm head was drawn and calculated and then an oval around the sperm tail was drawn and calculated. […] It was calculated as the Pythagorean distance between two points. […]

A further data set relates to ATM. The experiment in a line: qRT-PCR DNA DSB repair gene expression in mouse sperm lysates, ATM. It is filed as cell-based. As for the experimental part:
as §1, §2

In a further data set the test system is human sperm. The experiment in a line: Neutral comet assay on human sperm. The data set is classed as cell-based.
Where [2] appears, read: S1P with genotoxic stress, with ATM inhibitor, n=8, mean±SEM.

As for `CCCCCCCCCCCCC/C=C/[C@@H](O)[C@@H](N)COP(=O)(O)O` [S1P, sphingosine 1 phosphate], the “RAD50 expression (qRT-PCR)” value with RAD50 is listed as “no significant difference”. In addition, the “ceramide induced apoptosis in oocytes” value in the data set with oocytes is recorded as “block ceramide induced apoptosis”. Further, the “DMC1 expression (qRT-PCR)” value in the data set with DMC1 (S1P alone, with ATM inhibitor, n=8, mean±SEM) worked out at 0.027±0.014; in the data set with DMC1 (S1P in the presence of genotoxic stress, n=9, mean±SEM) it was 0.029±0.04; with DMC1 (setting [2]), 0.0035±0.005. Further, the side effects result in data set [1] was “no detectable side effects”. The “male germ cell loss by radiation-induced injury” value with male germ cells is given as “decreased”. Besides, the “DNA damage, neutral comet” value with mouse sperm (S1P-treated mouse sperm with ATM inhibitor), in the data set with human sperm (S1P-treated human sperm with ATM inhibitor) and with human sperm (S1P-treated human sperm without ATM inhibitor) was “no significant difference” throughout. For the same molecule, the “percent tail DNA, neutral comet” value with mouse sperm (S1P alone, without ATM inhibitor) worked out at 18.5±0.59%; in the data set with mouse sperm (S1P with H2O2, without ATM inhibitor), 18.8±0.73%. Besides, the “ATM expression (qRT-PCR)” value with ATM (S1P treatment, no ATM inhibitor) is “no significant difference”. The “ATM gene expression (qRT-PCR)” value in the data set on ATM (setting [2]) is recorded as 0.042±0.011.
